Drawing on patent US20260200939A1, “MOLECULAR GLUE DEGRADER COMPOUNDS AND USES THEREOF” (Novartis AG, priority 2022, published 2026), this text covers DC50 and IC50 for 27 molecules.

The target of one experiment is T1, BRD4 long (Homo sapiens, UniProt O60885).
T1 construct: endogenous in cells; host or cells: HEK293T
Description: BRD4 (long) degradation assay, Western blotting. The format is cell-based. To be noted: first value of cell; range with lower bound in nM and upper bound in μM. The gist of the method: (§1)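 Cell lines were grown at 37° C with 5% CO2 (HEK293T and C33A in DMEM, A549 in F-12K, 22RV1, LNCaP and Mino in RPMI-1640, K562 and MV-4-11 in IMDM, all with 10% FBS). Lysates were BCA-normalized, then SDS/PAGE Western blots were probed with target-specific antibodies and read by IR680/IR800 fluorescent secondaries on Li-Cor.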
`Cc1sc2c(c1C)C(c1ccc(Cl)cc1)=N[C@@H](CC(=O)N[C@H]1C[C@H](NC(=O)/C=C/C(=O)c3cc(Cl)ccc3Cl)C1)c1nnc(C)n1-2` [Compound 288, (E)-N-((1S,3r)-3-(2-((S)-4-(4-chlorophenyl)-2,3,9-trimethyl-6H-thieno[3,2-f][1,2,4]triazolo[4,3-a][1,4]diazepin-6-yl)acetamido)cyclobutyl)-4-(2,5-dichlorophenyl)-4-oxobut-2-enamide] came in with a DC50 of 100 to 1000 nM.

For another experiment, the target named is T2, Recombinant RNF126 (Homo sapiens, UniProt Q9BV68).
T2 construct: FLAG (C); host or cells: HEK293T
T2 sequence (Q9BV68 whole entry): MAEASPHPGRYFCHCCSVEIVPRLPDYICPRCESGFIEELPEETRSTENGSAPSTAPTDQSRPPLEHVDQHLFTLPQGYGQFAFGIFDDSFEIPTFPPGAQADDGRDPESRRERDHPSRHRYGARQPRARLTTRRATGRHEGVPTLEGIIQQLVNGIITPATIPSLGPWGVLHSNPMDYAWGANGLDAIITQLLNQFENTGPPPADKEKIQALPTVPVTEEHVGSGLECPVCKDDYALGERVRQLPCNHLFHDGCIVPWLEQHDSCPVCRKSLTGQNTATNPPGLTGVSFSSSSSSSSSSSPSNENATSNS
The experiment can be described thus: RNF126 Binding Assay, gel-based ABPP.
Conditions: not given
The procedure:
RNF126 mammalian expression plasmid with a C-terminal FLAG tag was purchased from Origene (Origene Technologies Inc., RC204986). The plasmid was transformed into NEB 5-alpha Competent E. coli (DH5) cells (NEB product no. C2987H). The following day, a single transformed colony was used to inoculate 50 ml of nutrient rich LB medium containing kanamycin (50 μg/ml) and was incubated at 37° C. overnight, with agitation (250 rpm). A Miniprep (Qiagen) kit was used to isolate the plasmid before sequence verification with appropriate primers.
HEK293T cells were grown to 30-50% confluency in DMEM supplemented with 10% FBS (Corning) and maintained at 37° C. with 5% CO2. Immediately before transfection, media was replaced with DMEM containing 5% FBS. Each plate was transfected with 24 μg of overexpression plasmid with 24 μL Lipofectamine 3000 (Invitrogen) in Opti-MEM. After 48 h cells were collected in PBS, lysed by sonication, and batch bound with anti-DYKDDDDK resin (GenScript, L00432) for 2 hours. Lysate and resin were washed with PBS and eluted with 133.33 μg/ml 3×FLAG peptide (ApexBio, A6001) in PBS. Five elutions were performed for 15 minutes each. Elutions were concentrated and the protein was stored in PBS. Concentration and purity was determined using the BCA assay and western blotting.
Recombinant RNF126 ([…]) was pre-treated with either DMSO vehicle or covalent ligand at 37° C. for 30 min in 25 μL of PBS, and subsequently treated with of IA-Rhodamine (concentrations designated in figure legends) (Setareh Biotech) at room temperature for 1 h in the dark. The reaction was stopped by addition of 4×reducing Laemmli SDS sample loading buffer (Alfa Aesar). After boiling at 95° C. for 5 min, the samples were separated on precast 4-20% Criterion TGX gels (Bio-Rad). Probe-labeled proteins were analyzed by in-gel fluorescence using a ChemiDoc MP (Bio-Rad).
As for `COc1ccc(C(=O)/C(C)=C/C(=O)N2CCNCC2)cc1` [Compound 145, (E)-1-(4-methoxyphenyl)-2-methyl-4-(piperazin-1-yl)but-2-ene-1,4-dione], the half-maximal inhibitory concentration (IC50) is over 50000 nM.

For `COc1ccccc1C(=O)/C=C/C(=O)N1CCNCC1` [Compound 147, (E)-1-(2-methoxyphenyl)-4-(piperazin-1-yl)but-2-ene-1,4-dione], the 50% inhibitory concentration (IC50) lay within 1000 to 10000 nM.

`O=C(/C=C/C(=O)N1CCNCC1)c1ccccc1F` [Compound 149, (E)-1-(2-fluorophenyl)-4-(piperazin-1-yl)but-2-ene-1,4-dione]: the IC50 was in the range of 1000 to 10000 nM.

For the molecule `O=C(/C=C/C(=O)N1CCNCC1)c1ccc(F)cc1` [Compound 150, (E)-1-(4-fluorophenyl)-4-(piperazin-1-yl)but-2-ene-1,4-dione], the IC50 was 1000 to 10000 nM.

Take `COc1cccc(C(=O)/C=C/C(=O)N2CCN(C(=O)OC(C)(C)C)CC2)c1` [Compound 156, tert-butyl (E)-4-(4-(3-methoxyphenyl)-4-oxobut-2-enoyl)piperazine-1-carboxylate]: the half-inhibitory concentration (IC50) was under 100 nM.

`Cc1cccc(C(=O)/C=C/C(=O)N2CCN(C(=O)OC(C)(C)C)CC2)c1` [Compound 157, tert-butyl (E)-4-(4-oxo-4-(m-toly1)but-2-enoyl)piperazine-1-carboxylate]: the IC50 is under 100 nM.

`CC(C)(C)OC(=O)N1CCN(C(=O)/C=C/C(=O)c2cccc(C(F)(F)F)c2)CC1` [Compound 162, tert-butyl (E)-4-(4-oxo-4-(3-(trifluoromethyl)phenyl)but-2-enoyl)piperazine-1-carboxylate]: the IC50 is under 100 nM.

Consider `CC(C)(C)OC(=O)N1CCN(C(=O)/C=C/C(=O)c2cccc(Br)c2)CC1` [Compound 163, tert-butyl (E)-4-(4-(3-bromophenyl)-4-oxobut-2-enoyl)piperazine-1-carboxylate], for which the 50% inhibitory concentration (IC50) was under 100 nM.

Take `CC(C)(C)OC(=O)N1CCN(C(=O)/C=C/C(=O)c2ccc(Br)cc2)CC1` [Compound 164, tert-butyl (E)-4-(4-(4-bromophenyl)-4-oxobut-2-enoyl)piperazine-1-carboxylate]: the IC50 was under 100 nM.

On to `COc1ccc(C(=O)/C=C(\C)C(=O)N2CCN(C(=O)OC(C)(C)C)CC2)cc1` [Compound 166, tert-butyl (E)-4-(4-(4-methoxyphenyl)-2-methyl-4-oxobut-2-enoyl)piperazine-1-carboxylate], for which the IC50 was in the range of 10000 to 50000 nM.

As for `CC(C)(C)OC(=O)N1CCN(C(=O)/C=C/C(=O)c2ccc3c(c2)NC(=O)CO3)CC1` [Compound 401, tert-butyl (E)-4-(4-oxo-4-(3-oxo-3,4-dihydro-2H-benzo[b][1,4]oxazin-6-yl)but-2-enoyl)piperazine-1-carboxylate], the IC50 was under 100 nM.

Regarding `CC(C)(C)OC(=O)N1CCN(C(=O)/C=C/C(=O)c2ccc3c(c2)OCC3)CC1` [Compound 404, tert-butyl (E)-4-(4-(2,3-dihydrobenzofuran-6-yl)-4-oxobut-2-enoyl)piperazine-1-carboxylate], the half-inhibitory concentration (IC50) was under 100 nM.

Take `Cc1ccccc1C(=O)/C=C/C(=O)N1CCN(C(=O)OC(C)(C)C)CC1` [Compound 407, tert-butyl (E)-4-(4-oxo-4-(o-tolyl)but-2-enoyl)piperazine-1-carboxylate]: the IC50 is under 100 nM.

Regarding `COc1ccc(C(=O)/C=C\C(=O)N2CCN(C(=O)OC(C)(C)C)CC2)cc1` [Compound 411, tert-butyl (Z)-4-(4-(4-methoxyphenyl)-4-oxobut-2-enoyl)piperazine-1-carboxylate], the IC50 is 10000 to 50000 nM.

The experiment is the same for the next values; noted with them: range with lower bound in nM and upper bound in μM.
For `O=C(/C=C/C(=O)N1CCNCC1)c1ccccc1` [Compound 152, (E)-1-phenyl-4-(piperazin-1-yl)but-2-ene-1,4-dione], the half-maximal inhibitory concentration (IC50) lay within 100 to 1000 nM.

For `COc1ccc(C(=O)/C=C(\C#N)C(=O)N2CCN(C(=O)OC(C)(C)C)CC2)cc1` [Compound 153, tert-butyl (E)-4-(2-cyano-4-(4-methoxyphenyl)-4-oxobut-2-enoyl)piperazine-1-carboxylate], the IC50 fell in the range of 100 to 1000 nM.

Turning to `CC(C)(C)OC(=O)N1CCN(C(=O)/C=C/C(=O)c2ccccc2Br)CC1` [Compound 154, tert-butyl (E)-4-(4-(2-bromophenyl)-4-oxobut-2-enoyl)piperazine-1-carboxylate], the IC50 was 100 to 1000 nM.

In the case of `CC(C)(C)OC(=O)N1CCN(C(=O)/C=C/C(=O)c2cccc(F)c2)CC1` [Compound 155, tert-butyl (E)-4-(4-(3-fluorophenyl)-4-oxobut-2-enoyl)piperazine-1-carboxylate], the 50% inhibitory concentration (IC50) lay in the range of 100 to 1000 nM.

For `CC(C)(C)OC(=O)N1CCN(C(=O)/C=C/C(=O)c2ccccc2Cl)CC1` [Compound 161, tert-butyl (E)-4-(4-(2-chlorophenyl)-4-oxobut-2-enoyl)piperazine-1-carboxylate], the IC50 lay within 100 to 1000 nM.

In the case of `CC(C)(C)OC(=O)N1CCN(C(=O)/C=C/C(=O)c2ccc3c(c2)OCCO3)CC1` [Compound 400, tert-butyl (E)-4-(4-(2,3-dihydrobenzo[b][1,4]dioxin-6-y1)-4-oxobut-2-enoy1)piperazine-1-carboxylate], the concentration for half-maximal inhibition (IC50) lay within 100 to 1000 nM.

For the molecule `COc1ccc(C(=O)/C=C/C(=O)N2CCN(C(=O)OC(C)(C)C)CC2)cn1` [Compound 402, tert-butyl (E)-4-(4-(6-methoxypyridin-3-yl)-4-oxobut-2-enoyl)piperazine-1-carboxylate], the IC50 lay within 100 to 1000 nM.

Take `Cn1cc(C(=O)/C=C/C(=O)N2CCN(C(=O)OC(C)(C)C)CC2)ccc1=O` [Compound 403, tert-butyl (E)-4-(4-(1-methyl-6-oxo-1,6-dihydropyridin-3-y1)-4-oxobut-2-enoyl)piperazine-1-carboxylate]: the half-inhibitory concentration (IC50) is 100 to 1000 nM.

In the case of `CC(C)(C)OC(=O)N1CCN(C(=O)/C=C/C(=O)c2ccc3c(c2)CCO3)CC1` [Compound 405, tert-butyl (E)-4-(4-(2,3-dihydrobenzofuran-5-y1)-4-oxobut-2-enoyl)piperazine-1-carboxylate], the half-inhibitory concentration (IC50) was 100 to 1000 nM.

As to `Cc1ccc(C(=O)/C=C/C(=O)N2CCN(C(=O)OC(C)(C)C)CC2)cc1` [Compound 406, tert-butyl (E)-4-(4-oxo-4-(p-tolyl)but-2-enoyl)piperazine-1-carboxylate], the 50% inhibitory concentration (IC50) is 100 to 1000 nM.

As to `C#CCCCCC(=O)N1CCN(C(=O)/C=C/C(=O)c2ccc(OC)cc2)CC1` [Compound 408, (E)-1-(4-(hept-6-ynoyl)piperazin-1-y1)-4-(4-methoxyphenyl)but-2-ene-1,4-dione], the half-inhibitory concentration (IC50) fell in the range of 100 to 1000 nM.

For the molecule `C#CCOCCC(=O)N1CCN(C(=O)/C=C/C(=O)c2ccc(OC)cc2)CC1` [Compound 409, (E)-1-(4-methoxyphenyl)-4-(4-(3-(prop-2-yn-1-yloxy)propanoyl)piperazin-1-yl)but-2-ene-1,4-dione], the concentration for half-maximal inhibition (IC50) was 100 to 1000 nM.

The target in a further experiment is T3, BRD4 short (Homo sapiens, UniProt O60885).
T3 construct: endogenous in cells; host or cells: HEK293T
Description: BRD4 (short) degradation assay, Western blotting. Type of experiment: cell-based. To be noted: second value of cell; range with lower bound in nM and upper bound in μM. The gist of the method: as §1
`Cc1sc2c(c1C)C(c1ccc(Cl)cc1)=N[C@@H](CC(=O)N[C@H]1C[C@H](NC(=O)/C=C/C(=O)c3cc(Cl)ccc3Cl)C1)c1nnc(C)n1-2` [Compound 288, (E)-N-((1S,3r)-3-(2-((S)-4-(4-chlorophenyl)-2,3,9-trimethyl-6H-thieno[3,2-f][1,2,4]triazolo[4,3-a][1,4]diazepin-6-yl)acetamido)cyclobutyl)-4-(2,5-dichlorophenyl)-4-oxobut-2-enamide] came in with a DC50 of 100 to 1000 nM.
